Data: US6100053A, “Microbial transglutaminases, their production and use” (priority 1994, dated 2000)

Experiments:
[1] = system: TGase from Bacteridium (CBS 495.74); assay: PMSF inhibition, putrescine assay; assay type: biochemical, Bacteridium sp. CBS 495.74; conditions: 1.6 mM PMSF; 1 h, 30° C., pH 8.5, α-casein + EDTA; -PMSF = 100
Description: (§1) Each of these washes takes place for 5 min. […] The washed filters are counted directly in scintillation vials.
(§2) A putrescine control assay was performed to investigate whether TGases from different bacterial strains are sensitive to PMSF (phenyl methyl sulfonyl fluoride).
(§3) The assay was run under optimized conditions (see examples 1-3), i.e. 1 h incubation at 30° C., pH 8.5 (2% α-casein+EDTA in 100 mM modified Britton-Robinson-buffer 0.1 M, pH 8.5). Final concentration of PMSF was 1.6 mM. As control an assay including propanol was included: propanol is the solvent of PMSF. This assay ensures that solvent effects are excluded. The assay contained 0.9 M 2-propanol i.e. the same concentration as in PMSF containing assay (addition of 8 μl propanol from 13 M instead of 8 μl PMSF in 2-propanol).

[2] = molecular target: T1, purified transglutaminase from S. mobaraense (Streptomyces mobaraensis, UniProt P81453); assay: PMSF sensitivity of purified transglutaminase; assay type: biochemical, Streptoverticillium mobaraense
T1 sequence (P81453 77-407): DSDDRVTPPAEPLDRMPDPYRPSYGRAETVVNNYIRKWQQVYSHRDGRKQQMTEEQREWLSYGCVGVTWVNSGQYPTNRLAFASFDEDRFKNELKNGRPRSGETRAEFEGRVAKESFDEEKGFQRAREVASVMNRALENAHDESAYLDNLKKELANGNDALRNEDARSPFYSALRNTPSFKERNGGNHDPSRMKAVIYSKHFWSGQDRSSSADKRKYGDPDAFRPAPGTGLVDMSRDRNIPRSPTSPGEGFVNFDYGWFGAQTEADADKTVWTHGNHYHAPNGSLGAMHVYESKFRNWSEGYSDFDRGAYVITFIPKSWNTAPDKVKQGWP
Description: as §2

[3] = system: TGase from Bacillus mycoides; assay: PMSF inhibition, putrescine assay; assay type: biochemical; conditions: 1.6 mM PMSF; 1 h, 30° C., pH 8.5, α-casein + EDTA; -PMSF = 100
Description: as §1, §2, §3

[4] = system: TGase from Bacillus aneurinolyticus; assay: PMSF inhibition, putrescine assay; assay type: biochemical; conditions: 1.6 mM PMSF; 1 h, 30° C., pH 8.5, α-casein + EDTA; -PMSF = 100
Description: as §1, §2, §3

[5] = molecular target: T2, TGase from Streptomyces lydicus (Streptomyces nigrescens, UniProt A0ABY7I822); assay: PMSF inhibition, putrescine assay; assay type: biochemical
T2 construct: mature 331 aa, N-terminus […]
T2 sequence (A0ABY7I822 88-418): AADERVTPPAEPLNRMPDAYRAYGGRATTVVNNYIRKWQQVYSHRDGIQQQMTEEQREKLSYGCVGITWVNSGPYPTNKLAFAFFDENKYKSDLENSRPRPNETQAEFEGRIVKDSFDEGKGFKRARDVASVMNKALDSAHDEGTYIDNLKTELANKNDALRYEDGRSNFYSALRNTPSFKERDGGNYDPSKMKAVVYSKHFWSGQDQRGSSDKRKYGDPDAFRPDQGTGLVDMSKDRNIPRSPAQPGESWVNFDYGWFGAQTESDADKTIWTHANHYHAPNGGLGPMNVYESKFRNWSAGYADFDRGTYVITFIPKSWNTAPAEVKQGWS
Description: as §1, §2, §3

[6] = system: TGase from Bacillus badius; assay: PMSF inhibition, putrescine assay; assay type: biochemical; conditions: 1.6 mM PMSF; 1 h, 30° C., pH 8.5, α-casein + EDTA; -PMSF = 100
Description: as §1, §2, §3

[7] = system: TGase from Bacillus firmus; assay: PMSF inhibition, putrescine assay; assay type: biochemical; conditions: 1.6 mM PMSF; 1 h, 30° C., pH 8.5, α-casein + EDTA; -PMSF = 100
Description: as §1, §2, §3

[8] = system: TGase from Bacteridium (DSM 10093); assay: PMSF inhibition, putrescine assay; assay type: biochemical, Bacteridium sp. DSM 10093; conditions: 1.6 mM PMSF; 1 h, 30° C., pH 8.5, α-casein + EDTA; -PMSF = 100
Description: as §1, §2, §3

[9] = system: TGase from strain Moo5A10; assay: PMSF inhibition, putrescine assay; assay type: biochemical, Moo5A10 (DSM 10094); conditions: 1.6 mM PMSF; 1 h, 30° C., pH 8.5, α-casein + EDTA; -PMSF = 100
Description: as §1, §2, §3

[10] = molecular target: transglutaminase from S. mobaraense (Streptomyces mobaraensis, UniProt P81453); conditions: 1 mM inhibitor, preincubation 30 min at 25° C.; cited from earlier work
[11] = molecular target: Ca2+-independent transglutaminase from Streptomyces platensis (Streptomyces platensis, UniProt A5PHK5); conditions: 50 μM inhibitor, nine fold molar excess to cysteine; 2 h at room temperature in the putrescine assay; duplicate
Sequence of Ca2+-independent transglutaminase from Streptomyces platensis (A5PHK5 88-418): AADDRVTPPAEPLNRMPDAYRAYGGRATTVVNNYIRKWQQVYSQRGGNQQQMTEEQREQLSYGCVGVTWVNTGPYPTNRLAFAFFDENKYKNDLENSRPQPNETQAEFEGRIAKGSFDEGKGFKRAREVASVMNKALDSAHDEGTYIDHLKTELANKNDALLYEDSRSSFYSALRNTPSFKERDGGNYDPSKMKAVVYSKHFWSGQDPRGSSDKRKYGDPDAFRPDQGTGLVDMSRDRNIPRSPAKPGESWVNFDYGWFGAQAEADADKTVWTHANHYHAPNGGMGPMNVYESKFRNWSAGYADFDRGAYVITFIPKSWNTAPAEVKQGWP

## O=S(=O)(F)Cc1ccccc1 [PMSF, phenylmethylsulfonylfluoride]
[1]
  Relative activity (%) +PMSP: 75%
[2]
  sensitivity to PMSF: insensitive
[3]
  Relative activity (%) +PMSP: 35%
[4]
  Relative activity (%) +PMSP: 47%
[5]; 1.6 mM PMSF, 1 h, 30° C., pH 8.5, α-casein + EDTA, -PMSF = 100
  Relative activity (%) +PMSP: 175%
[5]; purified transglutaminase
  sensitivity to PMSF: insensitive
[6]
  Relative activity (%) +PMSP: 62%
[7]
  Relative activity (%) +PMSP: 55%
[8]
  Relative activity (%) +PMSP: 75%
[9]
  Relative activity (%) +PMSP: 75%

## O=C(O)CI [mono-iodoacetic acid]
[10]
  residual activity: 76%
[11]
  residual activity: no residual activity
